# Assay results reported in BindingDB's records for patent US20240342186 (Boehringer Ingelheim International, 2024).
# Target: Cyclic GMP-AMP synthase (Homo sapiens, UniProt Q8N884)
# Test: Biochemical (In Vitro) Assay
# Sequence of Cyclic GMP-AMP synthase (Q8N884 whole entry): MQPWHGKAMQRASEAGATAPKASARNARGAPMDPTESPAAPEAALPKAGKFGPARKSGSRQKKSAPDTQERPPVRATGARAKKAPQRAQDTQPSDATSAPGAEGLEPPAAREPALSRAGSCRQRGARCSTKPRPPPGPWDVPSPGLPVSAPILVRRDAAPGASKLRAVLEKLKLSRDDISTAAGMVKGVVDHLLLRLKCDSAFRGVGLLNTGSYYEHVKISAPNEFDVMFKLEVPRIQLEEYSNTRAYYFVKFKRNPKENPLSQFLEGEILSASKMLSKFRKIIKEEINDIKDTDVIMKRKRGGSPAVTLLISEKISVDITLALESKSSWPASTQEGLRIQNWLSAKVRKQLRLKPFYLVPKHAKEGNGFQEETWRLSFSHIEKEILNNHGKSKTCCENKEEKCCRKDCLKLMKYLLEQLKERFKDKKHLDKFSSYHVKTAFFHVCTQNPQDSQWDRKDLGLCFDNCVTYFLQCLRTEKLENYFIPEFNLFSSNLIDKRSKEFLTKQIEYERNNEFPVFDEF
row,IC50 [nM],SMILES
1,6,"CC1(C#N)CCCN(c2cc(Cl)cnc2O[C@H]2C[C@@H](C(=O)O)N(c3nc(C(F)F)nc4c3oc3ccccc34)C2)C1 (stereo partly drawn) [US20240342186, Example 1.04]"
2,9,"O=C(O)[C@@H]1C[C@H](Oc2ncc(Br)cc2N2CCOC3(COC3)C2)CN1c1nc(C(F)F)nc2c1oc1ccccc12 [US20240342186, Example 1.24]"

row,SMILES,IC50 [nM]
1,"C#Cc1cnc(O[C@H]2C[C@@H](C(=O)O)N(c3nc(C(F)F)nc4c3oc3ccccc34)C2)c(N2CCOC3(COC3)C2)c1 [US20240342186, Example 1.25]",4
